Measured values: patent US12187785B2, “Recombinant protein and fragments thereof, method for producing said recombinant protein, synthetic gene and use of sculptin or recombinant protein for preparing a medicament or pharmaceutical composition for the prophylaxis and/or treatment of thromboembolic diseases or as a direct and specific …” (priority 2017, dated 2025)

B1: H3: HPLC peak of factor Xa hydrolysate, masses 8220.55 and 6770.60 Da (SEQ ID NO: 13 and 14) (protein)
chain 1: SDAVHTAVPKMPKGGHGGFEPIPIDYDERALEARSDAVHTAVPKMPKGGHGGFEPIPIDYDERALHALEHHHHHH
chain 2: SDAVHTAVPKMPKGGHGGFEPIPIDYDERALEARSDAVHTAVPKMPKGGHGGFEPIPIDYDER
modifications: Sculptin fragments generated by Xa factor
B2: H2: HPLC peak of factor Xa hydrolysate, masses 3667.50 and 4582.40 Da (SEQ ID NO: 11 and 12) (protein)
chain 1: SDAVHTAVPKMPKGGHGGFEPIPIDYDERALEAR
chain 2: SDAVHTAVPKMPKGGHGGFEPIPIDYDERALHALEHHHHHH
modifications: Sculptin fragments generated by Xa factor
B3: H4: HPLC peak of factor Xa hydrolysate, masses 7299.61 and 12427.54 Da (SEQ ID NO: 15 and 16) (protein)
chain 1: SDAVHTAVPKMPKGGHGGFEPIPIDYDERALEARSDAVHTAVPKMPKGGHGGFEPIPIDYDERALEAR
chain 2: GKPQGHPHDALEARSDAVHTAVPKMPKGGHGGFEPIPIDYDERALEARSDAVHTAVPKMPKGGLGGFEPIPIDYDERALEARSDAVHTAVPKMPKGGHGGFEPIPIDYDERALEAR
modifications: Sculptin fragments generated by Xa factor

Columns and labels:
[1] = molecular target: T1, thrombin (Homo sapiens, UniProt P00734); settings: literature values; cited from earlier work
[2] = in plasma in healthy human volunteers; intravenously; cited from earlier work
[3] = molecular target: T1, thrombin; experiment: Thrombin inhibition test of recombinant protein fragments generated by factor Xa; type: biochemical; set-up: Brown and cyan colors represent heavy and light chain of thrombin respectively; settings: fragment 100 pM, thrombin 0.1 nM, S-2238 15 μM
Protocol: Recombinant protein (10 μM) was incubated with or without factor Xa 1 μM in phosphate buffer 50 mM containing NaCl 150 mM, and phosphatidylserine and phosphatidylcholine 50 μM, pH 7.4 for 18 h at 37° C. (A) Reaction mixtures were split through reverse phase HPLC column C-18. (B) Gathered peaks (H1-H5) were subjected to MALDI-TOF MS and thrombin inhibition test (see table 1, for correspondent peptide sequence). (C) Typical progress curves for hydrolysis of chromogenic substrate S-2238 15 μM by thrombin 0.1 nM in absence (trace Ctrl) and presence of recombinant protein fragment 100 pM (traces H1 and H3) or preserved recombinant protein (trace Scpt) in phosphate buffer 50 mM containing NaCl 150 mM and 0.1% of PEG 6000, pH 7.4 at 37° C. (D) Percentage of thrombin inhibition by recombinant protein and fragments thereof. Reaction conditions of percentage of thrombin inhibition were obtained from (C).
In addition, recombinant protein was incubated with factor Xa for 18 h and resulting peptides were split by reverse phase chromatography (FIG. 6A). Peaks (named as H1, H2, H3 H4 and H5) were gathered and undergone to mass spectrometry MALDI-TOF (FIG. 6B). In accordance with analysis of mass spectrometry, H1 corresponds to average mass of 5153.57 Da, H2 corresponds to average mass of 3667.50 Da and 4582.40 Da and H3 corresponds to average mass of 8220.55 Da and 6770.60 Da. Similarly, H4 corresponds to average mass of 7299.61 Da and 12427.54 Da and H5 corresponds to 16990.90, 12427.54 Da and 11843.17 Da (FIG. 6B, Table 1). Further, fractions (H1, H2, H3 and H4) were undergone to test of thrombin inhibition (FIG. 6C). Fractions H1, H2, H3 and H4 retained thrombin inhibition activity of about 50%, 45%, 70% and 80% respectively, of preserved no hydrolyzed recombinant protein (FIG. 6D). Peak H5 had mainly preserved recombinant protein, thus it was not considered for test of thrombin inhibition.

Molecule	Inhibition Type [1]	Ki [1]	Half-life [2]	thrombin inhibition activity retained, of preserved no hydrolyzed recombinant protein [3]
Bivalirudin	No competing	1.9 ± 2.6 nM	25 min	–
GKPQGHPHDALEARSDAVHTAVPKMPKGGHGGFEPIPIDYDERALEAR (Sculptin fragments generated by Xa factor) [H1, HPLC peak of recombinant protein hydrolyzed by factor Xa, average mass 5153.57 Da]	–	–	–	about 50%
CC1CNc2c(cccc2S(=O)(=O)N[C@@H](CCCNC(=N)N)C(=O)N2CC[C@@H](C)C[C@@H]2C(=O)O)C1 (stereo partly drawn) [Argatroban]	No competing	–	50 min	–
B1	–	–	–	~70%
B2	–	–	–	~45%
B3	–	–	–	~80%
